Laboratory results taken from patent publication US5306812A, “Immunoglobulin-binding polypeptides” (The Regents of the University of California, priority 1990, dated 1994).
Where no end group is shown, it is not given here.

Key:
[1] = tested on: murine monoclonal antibodies; experiment: ELISA: binding of solid-phase CD4 peptide to murine monoclonal antibodies; set-up: species or system mouse; settings: compared with p21-38 and p21-49 or with background
Protocol: The plate was maintained for six hours at 37 degrees (37° C.) on a rotating platform to allow the peptide to adhere to the wells and form solid supports. After aspirating the excess liquid from the wells, 200 ul of washing solution containing TWEEN 20 (0.5% polyoxyethylenesorbitan monolaurate) in phosphate buffered saline (0.5M sodium chloride, 0.01M sodium phosphate at pH 7.2; PBS) was admixed to each well and immediately removed by aspiration. After aspirating the excess liquid from the wells 200 ul of blocking solution consisting of 1% bovine serum albumin (BSA) in phosphate buffered saline at pH 7.4 was admixed to each well, and the wells maintained at room temperature for one hour. The wells were washed with 200 ul a solution containing 0.5% TWEEN-20 (Polyoxyethylenesorbitan monolaurate) in PBS and the wash solution immediately removed by aspiration.
A first antibody, either a murine monoclonal antibody or a purified human myeloma protein was diluted to approximately 80 ug per ml in binding buffer consisting of 1% BSA and 0.5% TWEEN 20 (polyoxyethylenesorbitan monolaurate) in PBS and then various amounts, depending on the final antibody concentration desired, were admixed to each well and the wells maintained at room temperature for 3 or 4 hours in a humidified atmosphere. The wells were then washed 6 times with washing buffer and the excess liquid removed by aspiration.
50 ul of a horse radish peroxidase (HRP)-conjugated anti-mouse Ig secondary antibody (Cappel, Cochranvile, Pa.) or HRP-conjugated antihuman Ig (Sigma, St. Louis, Mo.) diluted 1:10,000 and 1:1,500, respectively, in binding buffer supplemented with 15% heat inactivated calf serum, was then admixed to each well. The wells were maintained for 1 hour at room temperature and then washed several times with washing buffer. 100 ul of freshly prepared substrate, prepared by adding 4 mg of 0-phenylendiamine and 4 ul of a 30% solution of hydrogen peroxide to 10 ml of a buffer containing 0.1M citric acid and 0.2M dibasic sodium phosphate at pH 5.0. were admixed to each well. The wells were then maintained (incubated) for 30 minutes at room temperature in the dark. The reaction was stopped by adding 25 ul per well of a stop buffer consisting of aqueous 4N H2 SO4. The amount of colored reaction product produced was determined by measuring the absorbance at 492 nanometers (nm).
Each peptide's ability to bind mouse monoclonal antibodies was determined using the ELISA assay described in Example 1B.

[2] = tested on: binding of peptide p21-49 to immunoglobulin (monoclonal antibodies 62 and OKT4A); experiment: ELISA: binding of p21-49 to immunoglobulins in the presence of dextran sulfate; set-up: species or system murine; settings: dextran sulfate 0.01 ug/ml to 50 ug/ml; both monoclonal antibody 62 (anti-thyroglobulin) and OKT4A (anti-CD4)
Protocol: The binding of peptide p21-49 to various immunoglobulins was determined in the presence of varying concentration of dextran sulfate. Briefly, peptide p21-49 was affixed to the wells of microliter plates as described in Example 1B. Dextran sulfate was then admixed to individual wells at a final concentration ranging from 0.01 ug/ml to 50 ug/ml. The first antibody, either a murine monoclonal antibody immunospecific for thyroglobulin or a murine monoclonal antibody immunospecific for CD4 protein was diluted to approximately 4 ug/ml in binding buffer and admixed to each well. The wells were maintained at room temperature for 4 hours in a humidified atmosphere. The wells were then washed 6 times with washing buffer and the excess liquid removed by aspiration. The assay was completed according to Example 1B.

Row | Substance | relative binding of CD4 peptides (FIG. 15) [1] | inhibition of peptide p21-49 binding to immunoglobulin (FIG. 7) [2]
1 | KKSIQFHWKNSNQIKIL [p 21-37, KKSIQ FHWKN SNQIK IL] | comparable binding with that of p21-38 and p21-49 | 
2 | IQFHWKNSNQIKILG [p 24-38, IQ FHWKN SNQIK ILG] | comparable binding with that of p21-38 and p21-49 | 
3 | SIQFHWKNSNQIKILG [p 23-38, SIQ FHWKN SNQIK ILG] | comparable binding with that of p21-38 and p21-49 | 
4 | KSIQFHWKNSNQIKILG [p 22-38, KSIQ FHWKN SNQIK ILG] | comparable binding with that of p21-38 and p21-49 | 
5 | dextran sulfate |  | inhibits the binding
